For two compounds, inhibition results are on record in ChEMBL document CHEMBL5653615 (J Biol Chem, 2013).

Assay [1] has as its target Vascular endothelial growth factor receptor 1 (Homo sapiens) (UniProt P17948). Nature of the assay: Inhibition of human FLT1 at 1.82 nM by HotSpot assay relative to control.
Assay [2] concerns the target Tyrosine-protein kinase Fyn (Homo sapiens) (UniProt P06241). Nature of the assay: Inhibition of human FYN at 1.82 nM by HotSpot assay relative to control.
In assay [3] the target is Ephrin type-A receptor 7 (Homo sapiens) (UniProt Q15375). The assay can be described thus: Inhibition of human EPHA7 at 1.82 nM by HotSpot assay relative to control.
Sequence of Ephrin type-A receptor 7 (Homo sapiens) (Q15375 28-998 limits assumed): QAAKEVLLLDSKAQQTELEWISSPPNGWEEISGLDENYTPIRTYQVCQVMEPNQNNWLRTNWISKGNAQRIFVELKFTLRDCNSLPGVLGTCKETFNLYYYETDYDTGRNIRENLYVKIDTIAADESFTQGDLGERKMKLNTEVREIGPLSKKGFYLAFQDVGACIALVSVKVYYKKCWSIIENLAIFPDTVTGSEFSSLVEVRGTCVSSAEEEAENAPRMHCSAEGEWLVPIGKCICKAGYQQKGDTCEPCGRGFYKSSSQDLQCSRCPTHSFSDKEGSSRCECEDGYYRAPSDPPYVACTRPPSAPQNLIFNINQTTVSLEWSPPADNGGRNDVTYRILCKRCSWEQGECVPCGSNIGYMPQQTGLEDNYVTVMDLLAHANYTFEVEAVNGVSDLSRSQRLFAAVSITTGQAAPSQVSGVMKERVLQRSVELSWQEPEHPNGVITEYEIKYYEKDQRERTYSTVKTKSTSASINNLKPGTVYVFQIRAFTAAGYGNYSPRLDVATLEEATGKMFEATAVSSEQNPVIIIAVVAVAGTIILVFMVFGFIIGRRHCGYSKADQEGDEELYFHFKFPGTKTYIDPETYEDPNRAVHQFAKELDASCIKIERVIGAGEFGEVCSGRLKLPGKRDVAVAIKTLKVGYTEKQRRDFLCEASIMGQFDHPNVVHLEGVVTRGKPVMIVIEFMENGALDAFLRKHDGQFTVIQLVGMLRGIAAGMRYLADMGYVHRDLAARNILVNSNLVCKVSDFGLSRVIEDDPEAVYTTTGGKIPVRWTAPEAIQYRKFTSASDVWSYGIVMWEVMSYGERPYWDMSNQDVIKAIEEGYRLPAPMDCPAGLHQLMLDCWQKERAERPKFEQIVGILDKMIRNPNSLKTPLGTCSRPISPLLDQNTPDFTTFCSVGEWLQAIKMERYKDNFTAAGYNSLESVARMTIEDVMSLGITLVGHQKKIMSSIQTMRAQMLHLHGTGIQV
Assay [4] concerns the target Serine/threonine-protein kinase 26 (Homo sapiens) (UniProt Q9P289). Nature of the assay: Inhibition of human MST4 at 1.82 nM by HotSpot assay relative to control.
Assay [5] has as its target T1, Serine/threonine-protein kinase TAO3 (Homo sapiens) (UniProt Q9H2K8).
T1 sequence (whole entry): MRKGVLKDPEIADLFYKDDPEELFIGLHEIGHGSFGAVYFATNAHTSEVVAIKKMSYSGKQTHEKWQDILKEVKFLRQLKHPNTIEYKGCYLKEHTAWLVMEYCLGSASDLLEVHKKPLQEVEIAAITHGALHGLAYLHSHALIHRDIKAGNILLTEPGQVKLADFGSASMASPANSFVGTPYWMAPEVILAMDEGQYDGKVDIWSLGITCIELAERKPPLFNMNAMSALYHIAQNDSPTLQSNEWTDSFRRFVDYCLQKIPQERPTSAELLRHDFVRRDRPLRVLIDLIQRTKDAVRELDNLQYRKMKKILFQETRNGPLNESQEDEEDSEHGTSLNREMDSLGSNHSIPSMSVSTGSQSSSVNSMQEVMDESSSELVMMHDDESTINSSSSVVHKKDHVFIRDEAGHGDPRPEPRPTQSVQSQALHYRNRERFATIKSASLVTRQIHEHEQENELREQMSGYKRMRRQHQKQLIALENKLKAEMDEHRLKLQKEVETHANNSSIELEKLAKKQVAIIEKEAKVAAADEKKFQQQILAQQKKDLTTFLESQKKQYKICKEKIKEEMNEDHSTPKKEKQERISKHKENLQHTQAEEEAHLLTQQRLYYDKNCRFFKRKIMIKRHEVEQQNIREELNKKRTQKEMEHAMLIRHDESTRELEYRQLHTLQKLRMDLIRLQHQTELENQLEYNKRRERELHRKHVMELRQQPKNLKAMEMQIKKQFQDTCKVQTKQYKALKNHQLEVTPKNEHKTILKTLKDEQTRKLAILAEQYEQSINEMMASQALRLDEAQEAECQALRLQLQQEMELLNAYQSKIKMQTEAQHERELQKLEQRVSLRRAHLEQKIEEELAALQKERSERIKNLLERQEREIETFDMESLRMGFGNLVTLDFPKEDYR
Nature of the assay: Inhibition of human JIK at 1.82 nM by HotSpot assay relative to control.

Assay [6] deals with Casein kinase I isoform delta (Homo sapiens) (UniProt P48730). Nature of the assay: Inhibition of human CK1d at 18.6 nM by HotSpot assay relative to control.
Sequence of Casein kinase I isoform delta (Homo sapiens) (P48730 whole entry, looked up, canonical isoform): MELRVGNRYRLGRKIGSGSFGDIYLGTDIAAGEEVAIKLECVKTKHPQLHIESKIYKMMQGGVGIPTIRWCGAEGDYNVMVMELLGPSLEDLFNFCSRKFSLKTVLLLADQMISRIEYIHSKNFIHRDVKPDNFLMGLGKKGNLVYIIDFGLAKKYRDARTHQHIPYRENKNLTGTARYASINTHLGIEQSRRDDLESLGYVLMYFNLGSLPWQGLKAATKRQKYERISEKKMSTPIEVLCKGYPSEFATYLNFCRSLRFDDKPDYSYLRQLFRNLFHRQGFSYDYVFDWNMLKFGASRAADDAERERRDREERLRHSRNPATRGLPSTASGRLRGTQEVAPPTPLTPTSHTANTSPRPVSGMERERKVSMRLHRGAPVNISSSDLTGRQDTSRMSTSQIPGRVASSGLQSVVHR
Assay [7] addresses T2, Ephrin type-B receptor 3 (Homo sapiens) (UniProt P54753).
T2 sequence (whole entry): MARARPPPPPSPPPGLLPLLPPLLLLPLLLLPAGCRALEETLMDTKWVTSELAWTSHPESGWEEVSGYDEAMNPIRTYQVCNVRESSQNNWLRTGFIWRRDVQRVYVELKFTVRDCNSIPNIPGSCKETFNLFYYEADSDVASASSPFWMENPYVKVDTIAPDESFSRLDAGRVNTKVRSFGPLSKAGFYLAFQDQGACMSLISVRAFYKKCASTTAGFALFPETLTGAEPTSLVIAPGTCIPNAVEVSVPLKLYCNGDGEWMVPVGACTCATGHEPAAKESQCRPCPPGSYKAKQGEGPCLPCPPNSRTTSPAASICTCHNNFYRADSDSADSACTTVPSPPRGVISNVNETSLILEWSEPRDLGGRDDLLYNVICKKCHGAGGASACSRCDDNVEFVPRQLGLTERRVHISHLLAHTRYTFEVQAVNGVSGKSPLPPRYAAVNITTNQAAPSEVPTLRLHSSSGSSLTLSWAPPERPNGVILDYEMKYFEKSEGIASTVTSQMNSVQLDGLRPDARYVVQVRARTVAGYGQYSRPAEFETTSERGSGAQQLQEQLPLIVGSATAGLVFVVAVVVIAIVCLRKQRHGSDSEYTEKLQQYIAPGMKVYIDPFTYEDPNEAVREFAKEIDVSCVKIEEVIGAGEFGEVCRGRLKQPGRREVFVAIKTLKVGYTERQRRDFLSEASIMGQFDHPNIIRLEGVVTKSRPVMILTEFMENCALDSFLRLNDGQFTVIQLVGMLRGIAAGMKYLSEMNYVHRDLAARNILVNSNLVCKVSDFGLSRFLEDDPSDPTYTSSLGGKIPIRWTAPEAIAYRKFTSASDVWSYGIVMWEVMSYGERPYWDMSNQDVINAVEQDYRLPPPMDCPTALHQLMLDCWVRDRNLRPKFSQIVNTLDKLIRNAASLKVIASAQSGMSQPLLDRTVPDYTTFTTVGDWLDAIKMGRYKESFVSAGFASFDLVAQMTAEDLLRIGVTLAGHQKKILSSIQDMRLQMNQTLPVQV
The assay can be described thus: Inhibition of human EPHB3 at 18.6 nM by HotSpot assay relative to control.

In assay [8] the target is Serine/threonine-protein kinase 26 (Homo sapiens) (UniProt Q9P289). Nature of the assay: Inhibition of human MST4 at 18.6 nM by HotSpot assay relative to control.
Sequence of Serine/threonine-protein kinase 26 (Homo sapiens) (Q9P289 2-416 limits assumed): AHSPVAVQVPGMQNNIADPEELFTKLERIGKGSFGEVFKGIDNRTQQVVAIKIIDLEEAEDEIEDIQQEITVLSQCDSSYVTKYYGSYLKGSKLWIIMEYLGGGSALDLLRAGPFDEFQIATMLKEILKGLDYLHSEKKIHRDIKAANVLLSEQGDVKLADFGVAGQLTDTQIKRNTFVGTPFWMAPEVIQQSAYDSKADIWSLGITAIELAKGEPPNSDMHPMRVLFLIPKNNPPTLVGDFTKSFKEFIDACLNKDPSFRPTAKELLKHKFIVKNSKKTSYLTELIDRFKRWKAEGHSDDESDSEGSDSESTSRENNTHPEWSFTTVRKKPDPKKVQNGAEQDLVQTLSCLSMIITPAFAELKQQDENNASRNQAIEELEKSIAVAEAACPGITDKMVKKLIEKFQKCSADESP
In assay [9] the target is Serine/threonine-protein kinase PAK 4 (Homo sapiens) (UniProt O96013). The assay can be described thus: Inhibition of human PAK4 at 18.6 nM by HotSpot assay relative to control.
Sequence of Serine/threonine-protein kinase PAK 4 (Homo sapiens) (O96013 whole entry, looked up): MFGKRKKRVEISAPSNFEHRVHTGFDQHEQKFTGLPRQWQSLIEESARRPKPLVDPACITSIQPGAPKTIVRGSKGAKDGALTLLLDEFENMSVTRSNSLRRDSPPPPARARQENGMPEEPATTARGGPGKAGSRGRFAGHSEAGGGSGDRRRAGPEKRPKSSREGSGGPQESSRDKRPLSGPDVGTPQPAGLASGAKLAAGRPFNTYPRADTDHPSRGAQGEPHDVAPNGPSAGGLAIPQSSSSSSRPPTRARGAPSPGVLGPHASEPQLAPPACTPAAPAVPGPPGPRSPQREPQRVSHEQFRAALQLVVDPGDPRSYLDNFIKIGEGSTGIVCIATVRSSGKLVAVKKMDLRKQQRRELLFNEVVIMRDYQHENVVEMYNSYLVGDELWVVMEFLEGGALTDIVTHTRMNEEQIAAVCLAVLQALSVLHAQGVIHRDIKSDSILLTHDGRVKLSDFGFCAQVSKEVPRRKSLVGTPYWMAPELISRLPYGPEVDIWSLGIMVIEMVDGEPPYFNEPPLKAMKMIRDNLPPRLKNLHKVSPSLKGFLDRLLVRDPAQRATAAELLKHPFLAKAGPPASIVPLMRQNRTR
Assay [10] has as its target Mitogen-activated protein kinase kinase kinase kinase 4 (Homo sapiens) (UniProt O95819). The assay can be described thus: Inhibition of human HGK at 18.6 nM by HotSpot assay relative to control.
Assay [11] concerns the target Calcium/calmodulin-dependent protein kinase type II subunit gamma (Homo sapiens) (UniProt Q13555). The assay can be described thus: Inhibition of human CAMK2g at 18.6 nM by HotSpot assay relative to control.
For assay [12], the target named is CDK4/Cyclin D3 (Homo sapiens) (UniProt P11802+P30281). Nature of the assay: Inhibition of human CDK4/cyclin D3 at 18.6 nM by HotSpot assay relative to control. It is filed as protein-complex assay.

Sequence of Tyrosine-protein kinase Fyn (Homo sapiens) (P06241 2-537 limits assumed): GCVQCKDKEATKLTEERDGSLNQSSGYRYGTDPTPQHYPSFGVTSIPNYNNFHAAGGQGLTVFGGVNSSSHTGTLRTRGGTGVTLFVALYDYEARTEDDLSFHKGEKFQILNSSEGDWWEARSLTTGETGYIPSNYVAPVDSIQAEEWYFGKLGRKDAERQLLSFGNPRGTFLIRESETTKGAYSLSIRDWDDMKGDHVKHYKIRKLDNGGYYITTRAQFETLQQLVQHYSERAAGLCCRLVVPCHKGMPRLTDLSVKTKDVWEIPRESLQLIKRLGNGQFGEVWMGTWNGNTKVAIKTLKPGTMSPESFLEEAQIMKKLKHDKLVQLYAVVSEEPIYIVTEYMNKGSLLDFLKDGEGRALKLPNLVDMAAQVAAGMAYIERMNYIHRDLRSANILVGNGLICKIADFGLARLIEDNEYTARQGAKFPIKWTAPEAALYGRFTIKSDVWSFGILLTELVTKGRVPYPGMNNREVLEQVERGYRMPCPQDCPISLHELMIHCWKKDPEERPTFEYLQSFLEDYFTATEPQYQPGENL
Sequence of Mitogen-activated protein kinase kinase kinase kinase 4 (Homo sapiens) (O95819 2-1239 limits assumed): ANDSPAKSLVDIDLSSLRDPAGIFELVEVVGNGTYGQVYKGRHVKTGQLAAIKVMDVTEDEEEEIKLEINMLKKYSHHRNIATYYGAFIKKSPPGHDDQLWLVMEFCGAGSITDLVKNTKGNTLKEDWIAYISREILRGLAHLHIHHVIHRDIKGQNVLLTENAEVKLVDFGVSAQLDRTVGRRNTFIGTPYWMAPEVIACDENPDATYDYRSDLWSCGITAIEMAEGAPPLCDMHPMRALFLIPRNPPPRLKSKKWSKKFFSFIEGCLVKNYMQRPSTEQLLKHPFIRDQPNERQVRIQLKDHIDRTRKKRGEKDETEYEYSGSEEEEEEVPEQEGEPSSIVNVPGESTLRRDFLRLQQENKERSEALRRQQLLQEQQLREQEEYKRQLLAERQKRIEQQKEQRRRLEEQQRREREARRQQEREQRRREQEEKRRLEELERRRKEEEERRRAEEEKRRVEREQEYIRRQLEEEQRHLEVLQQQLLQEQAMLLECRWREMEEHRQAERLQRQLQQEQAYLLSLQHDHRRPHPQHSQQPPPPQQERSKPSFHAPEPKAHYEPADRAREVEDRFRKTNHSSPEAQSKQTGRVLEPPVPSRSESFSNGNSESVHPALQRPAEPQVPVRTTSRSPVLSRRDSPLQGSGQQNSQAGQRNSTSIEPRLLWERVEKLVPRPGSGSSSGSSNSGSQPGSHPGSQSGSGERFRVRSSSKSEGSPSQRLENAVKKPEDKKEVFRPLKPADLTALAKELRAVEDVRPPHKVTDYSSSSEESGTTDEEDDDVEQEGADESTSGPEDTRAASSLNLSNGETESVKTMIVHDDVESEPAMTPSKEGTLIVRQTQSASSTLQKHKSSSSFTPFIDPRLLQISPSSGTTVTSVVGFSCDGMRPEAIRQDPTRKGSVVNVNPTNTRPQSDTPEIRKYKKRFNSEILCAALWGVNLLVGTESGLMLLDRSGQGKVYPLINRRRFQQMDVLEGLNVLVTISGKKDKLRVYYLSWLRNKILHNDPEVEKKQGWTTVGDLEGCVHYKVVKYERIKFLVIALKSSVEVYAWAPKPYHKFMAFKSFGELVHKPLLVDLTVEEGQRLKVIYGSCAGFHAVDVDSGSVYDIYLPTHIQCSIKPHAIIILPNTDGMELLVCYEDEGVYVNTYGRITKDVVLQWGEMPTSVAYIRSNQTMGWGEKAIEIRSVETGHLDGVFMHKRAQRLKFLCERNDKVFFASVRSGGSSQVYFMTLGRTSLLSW
Sequence of Calcium/calmodulin-dependent protein kinase type II subunit gamma (Homo sapiens) (Q13555 whole entry): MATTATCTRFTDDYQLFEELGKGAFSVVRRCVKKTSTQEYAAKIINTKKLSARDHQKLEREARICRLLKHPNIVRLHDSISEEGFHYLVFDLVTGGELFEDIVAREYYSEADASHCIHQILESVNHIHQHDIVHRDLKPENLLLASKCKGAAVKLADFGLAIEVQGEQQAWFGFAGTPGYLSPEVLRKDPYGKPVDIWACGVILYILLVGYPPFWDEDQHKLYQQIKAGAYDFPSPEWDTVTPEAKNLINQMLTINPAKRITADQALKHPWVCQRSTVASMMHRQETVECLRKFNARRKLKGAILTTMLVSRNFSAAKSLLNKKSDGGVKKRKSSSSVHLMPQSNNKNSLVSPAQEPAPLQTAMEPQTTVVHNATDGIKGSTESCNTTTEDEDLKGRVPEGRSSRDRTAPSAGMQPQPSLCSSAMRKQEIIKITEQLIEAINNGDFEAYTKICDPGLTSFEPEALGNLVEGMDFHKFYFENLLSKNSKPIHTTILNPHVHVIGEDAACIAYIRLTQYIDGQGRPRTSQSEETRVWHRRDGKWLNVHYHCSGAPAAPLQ

On to `C[C@@]1(C(=O)Nc2ccc(F)nc2)CCCN1c1nc(Nc2cc(C3CC3)n[nH]2)c2cccn2n1`, for which the inhibition in assay [1] was -4.89%; in assay [2], -6.23%; in assay [3] it was 3.41%; in assay [4], -1.09%; in assay [5], 4.12%.

Take `C[C@]1(O)C[C@@H](c2nc(-c3ccc4ccc(-c5ccccc5)nc4c3)c3c(N)nccn32)C1`: the inhibition in [6] was -2.47%; in [7], -2.53%; in assay [8], -2.21%; in [9] it was -5.78%; in assay [10], -9.59%; in assay [11], 2.76%. Moreover, the inhibition in assay [12] came out at 2.46%.
